In US8546113B2, “Hydrogen peroxide-forming NADH oxidase and DNA encoding the same” (Keio University, priority 2008, dated 2013):

Tests used:
[1] = test system: NADH oxidase isolated from Brevibacterium sp.; test: Substrates and activity levels in the presence of cofactors; format: biochemical, Brevibacterium sp. KU1309
Description: (§1) Enzyme activity was evaluated by measuring the absorbance at 340 nm, which decreases as a result of oxidization of NADH to NAD^+, with the use of an absorptiometer. A reaction was induced by adding an enzyme solution to a mixture of 0.1 mM NADH, 100 mM Tris-HCL (pH 8.8), and 500 mM ammonium sulfate. Herein, “1 unit” is defined as the amount of an enzyme that allows oxidation of 1μ mole of NADH per minute.

[2] = test system: NADH oxidase isolated from Brevibacterium sp.; settings: inhibitor 1 mM, 3 minutes at room temperature; NADH 10 μM; (NH4)2SO4 500 mM; Tris-HCl pH 8.8; not stated whether % inhibition or % relative activity
Description: The enzyme solution was added to 100 mM Tris-HCl (pH 8.8). Further, an inhibitor was added thereto to a final concentration of 1 mM, followed by incubation at room temperature for 3 minutes. Then, NADH and (NH4)2SO4 were added thereto so as to result in concentrations of 10 μM and 500 mM, respectively, followed by determination of the absorbance at 340 nm. Accordingly, the reaction rate was determined.

[3] = test system: NADH oxidase isolated from Brevibacterium sp.; test: Effects of salts on enzyme activity; format: biochemical, Brevibacterium sp. KU1309
Description: Reaction was carried out with the addition of different salts, followed by determination of absorbance at 340 nm. Then, the reaction rate was determined. […] Then, the effects of ammonium salt concentration upon enzyme activity were examined in the manner described below. The reaction was carried out in the presence of ammonium sulfate at a concentration of 0 M to 4.35 M. Thereafter, the relative value of the reaction rate was calculated.

[4] = test system: NADH oxidase isolated from Brevibacterium sp.; test: H2O2 formation confirmation and quantification (o-dianisidine/peroxidase, Abs460); format: biochemical, Brevibacterium sp. KU1309; settings: NADH 75, 100 and 150 μM
Description: NOX is classified into the H2O by-product type and the H2O2 by-product type. With the use of the assay method shown in FIG. 8A, H2O2 formation confirmation and H2O2 quantification were carried out. First, the reaction was carried out with the use of hydrogen peroxide, o-dianisidine, and peroxidase at known concentrations. The standard curve of [H2O2] vs Abs460 was created. The symbol “♦” denotes each obtained plotted point on the curve in FIG. 8B. […] The reaction was completed after the elapse of a sufficient reaction time. The completion of the reaction was confirmed with the use of an absorptiometer. The obtained reaction solution (50 μl) was added to a 100 mM phosphate buffer (pH 7.0) containing o-dianisidine and peroxidase, followed by absorbance determination. The symbol “□” denotes each obtained plotted point on the curve in FIG. 8B. […] It is understood that the values were identical to the relevant [H2O2] concentrations.

[5] = test system: NADH oxidase isolated from Brevibacterium sp.; test: Kinetic analysis of NADH oxidation (Lineweaver-Burk plot, absorbance at 340 nm); format: biochemical, Brevibacterium sp. KU1309; settings: for Km: NOX 0.28 ug/ml
Description: as §1
For kinetic analysis, the reaction rate was determined at an NADH concentration of 10 μM to 100 μM. A Lineweaver-Burk plot was created based on the obtained values. The reaction was carried out as described below. A reaction solution (NOX: 0.28 ug/ml; NADH: 10 μM to 100 μM; (NH4)2SO4: 500 mM; and Tris-HCl: 100 mM (pH 8.8)) was introduced into an absorptiometer cell, followed by determination of the absorbance at 340 nm. Accordingly, the reaction rate was determined.

[6] = as substrate, no cofactor added, NADH without cofactor = 100
[7] = substrate NADH, cofactor added at 1 mM
[8] = NADH 10 μM to 100 μM, (NH4)2SO4 500 mM, Tris-HCl 100 mM (pH 8.8)

NC(=O)C1=CN([C@@H]2O[C@H](COP(=O)(O)OP(=O)(O)OC[C@H]3O[C@@H](n4cnc5c(N)ncnc54)[C@H](OP(=O)(O)O)[C@@H]3O)[C@@H](O)[C@H]2O)C=CC1 [NADPH]
degree of NADPH-oxidizing activity [1]: low
Specific activity (%) [1, 6]: 2%

Cc1cc2nc3c(=O)[nH]c(=O)nc-3n(C[C@H](O)[C@H](O)[C@H](O)COP(=O)(O)OP(=O)(O)OC[C@H]3O[C@@H](n4cnc5c(N)ncnc54)[C@H](O)[C@@H]3O)c2cc1C [FAD]
activation caused by FAD or FMN [1]: not observed
Specific activity (%) [1, 7]: 101%

[Ag+] [Ag^+]
activity inhibited (FIG. 6 relative activity values) [2]: 37%

Cc1cc2nc3c(=O)[nH]c(=O)nc-3n(C[C@H](O)[C@H](O)[C@H](O)COP(=O)(O)O)c2cc1C [FMN]
activation caused by FAD or FMN [1]: not observed
Specific activity (%) [1, 7]: 104%

[Cu+2] [Cu^2+]
activity inhibited (FIG. 6 relative activity values) [2]: 42%

[Zn+2] [Zn^2+]
activity inhibited (FIG. 6 relative activity values) [2]: 39%

N.N.O=S(=O)(O)O [ammonium salt, ammonium sulfate]
effect of addition of salt on enzyme activity [3]: increases
ammonium salt concentration ([NH4+]) at maximum activity ([3]; ammonium sulfate 0 M to 4.35 M): 3.0 M

reduced nicotinamide adenine dinucleotide [NADH]
hydrogen peroxide formed on oxidization of 1 mol of NADH [4]: 1 mol
Kcat ([5]; Calculated with a molecular weight of 101.68 kDa): 15.01 s⁻¹
Vmax [5, 8]: 8.86 Unit/mq
Km [5, 8]: 22 µM
Specific activity (%) [1, 6]: 100%

B1: enzyme of the present invention: hydrogen peroxide-forming NADH oxidase from Brevibacterium sp. KU1309, homodimer, amino acid sequence of SEQ ID NO: 18 (protein, listed as Brevibacterium sp.)
chain: VSDELTYDLVVLGGGTGGYAAALRAAELDMKVALIERDKVGGTCLHRGCVPTKALLHAAEVAETAKNSETFGIEAELQGIDIAKVLEYKDGVITRNYKGLQGLVKARGIDTYFGTGKLVGKDTVEVTGEDGNHTVKGTNVLLSTGSTSKTIGLEVTDRVITSTEALQLDKVPSSAIVLGGGVIGVEFASVWNSFGAEVTIVEGLKHLVANEDETISKNLERAFKKRKIKFKLGVMFKGVEETADGVKVTLEDGSTLEAEYLLVAVGRGPVTEGFGFEEQGIPMDRGFVLASERLHTGVGNIYACGDIVPGLQLAHRAFGQGIFIAEEIAGLNPAPVVESGIPRVTYCEPEIFSVGLSSAQAEEKYGKDQVESLEYNLGGNGKSVILNTTGLIKVIREKDGPVVGVHGIGARLSEQAGEAQLIVNWEAFPEEVAQLIHAHPTQNEALGEAHLALAGKPLHFHS
modifications: homodimer
hydrogen peroxide formed on oxidization of 1 mol of NADH [4]: 1 mol
Km [5, 8]: 22 µM
